What was measured:
[1] = molecular target: T1, BTK enzyme (recombinant full-length BTK, hBTK) (Homo sapiens, UniProt Q06187); test: BTK enzyme activity assay, LANCE TR-FRET; type: biochemical; conditions: 50 pM hBTK, 2 μM biotin-A5-peptide, 25 μM ATP; 60 min compound & enzyme incubation; read-out: IC50 BTK activity value
T1 construct: recombinant protein from baculovirus-transfected Sf9 cells: full-length BTK, 6HIS-tag cleaved; 6HIS (cleaved yes); made in house; host or cells: baculovirus-transfected Sf9 cells

[2] = system: HeLa cells; test: [3H]Adenosine uptake functional cellular assay; type: cell-based; conditions: Homo sapiens, HeLa, accumulation of [3H]adenosine into HeLa cells; compound range 10 μM to […]; read-out: Adenosine uptake inhibition IC50
Summary of the method: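 Inhibition of adenosine uptake was measured in HeLa cells (ATCC CCL-2) by following accumulation of tritiated adenosine. Cells were kept overnight at 37° C. with 5% (v/v) CO2, then switched to 40 μL HBSS plus 5% (v/v) FBS. 20 μL of 500 nM [3H]adenosine was added, and uptake was counted on a Topcount NXT reader.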

T1 sequence (Q06187 whole entry): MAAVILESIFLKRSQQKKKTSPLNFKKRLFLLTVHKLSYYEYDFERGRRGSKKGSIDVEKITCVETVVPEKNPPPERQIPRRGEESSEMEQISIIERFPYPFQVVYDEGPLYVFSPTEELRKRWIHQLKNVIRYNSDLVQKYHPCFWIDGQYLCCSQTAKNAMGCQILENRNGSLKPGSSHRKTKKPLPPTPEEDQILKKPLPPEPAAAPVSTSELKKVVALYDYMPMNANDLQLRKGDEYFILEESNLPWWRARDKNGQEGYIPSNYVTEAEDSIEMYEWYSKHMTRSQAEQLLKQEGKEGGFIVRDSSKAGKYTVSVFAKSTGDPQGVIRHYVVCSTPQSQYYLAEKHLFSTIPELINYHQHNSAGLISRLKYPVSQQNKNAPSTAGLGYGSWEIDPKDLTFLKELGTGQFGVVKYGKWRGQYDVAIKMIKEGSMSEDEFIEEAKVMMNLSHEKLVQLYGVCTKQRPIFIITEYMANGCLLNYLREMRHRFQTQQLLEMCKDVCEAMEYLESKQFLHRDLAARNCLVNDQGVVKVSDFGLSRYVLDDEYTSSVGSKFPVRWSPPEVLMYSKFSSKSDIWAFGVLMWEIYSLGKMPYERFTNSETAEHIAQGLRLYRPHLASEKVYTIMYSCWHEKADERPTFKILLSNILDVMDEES

Row | SMILES | IC50 [1] | IC50 [2]
1 | CCOc1cc(C(=O)Nc2cc(C(F)(F)F)n(C)n2)ccc1-c1nc([C@@H]2CC[C@H]3CCC(=O)N3C2)n2c(F)cnc(N)c12 [Example 163, 4-{8-amino-5-fluoro-3-[(6R,8aS)-3-oxooctahydroindolizin-6-yl]imidazo[1,5-a]pyrazin-1-yl}-3-ethoxy-N-[1-methyl-5-(trifluoromethyl)-1H-pyrazol-3-yl]benzamide] | 3.1 nM | 2410 nM
2 | CCOc1cc(C(=O)Nc2ncc(C)s2)ccc1-c1nc([C@@H]2CC[C@H]3CCC(=O)N3C2)n2c(F)cnc(N)c12 [Example 164, 4-{8-amino-5-fluoro-3-[(6R,8aS)-3-oxooctahydroindolizin-6-yl]imidazo[1,5-a]pyrazin-1-yl}-3-ethoxy-N-(5-methyl-1,3-thiazol-2-yl)benzamide] | 1.9 nM | 817 nM
3 | Nc1ncc(F)n2c([C@@H]3CC[C@H]4CCC(=O)N4C3)nc(-c3ccc(C(=O)Nc4cc(C(F)(F)F)ccn4)cc3O)c12 [Example 165, 4-{8-amino-5-fluoro-3-[(6R,8aS)-3-oxooctahydroindolizin-6-yl]imidazo[1,5-a]pyrazin-1-yl}-3-hydroxy-N-[4-(trifluoromethyl)pyridin-2-yl]benzamide] | 2.3 nM | 1540 nM
4 | Nc1ncc(F)n2c([C@@H]3CC[C@H]4CCC(=O)N4C3)nc(-c3ccc(C(=O)Nc4cc(C(F)(F)F)ccn4)cc3F)c12 [Example 166, 4-{8-amino-5-fluoro-3-[(6R,8aS)-3-oxooctahydroindolizin-6-yl]imidazo[1,5-a]pyrazin-1-yl}-3-fluoro-N-[4-(trifluoromethyl)pyridin-2-yl]benzamide] | 0.34 nM | 296 nM
5 | Nc1ncc(F)n2c([C@@H]3CC[C@H]4CCC(=O)N4C3)nc(-c3ccc(C(=O)Nc4cc(C5CC5)ccn4)cc3F)c12 [Example 167, 4-{8-amino-5-fluoro-3-[(6R,8aS)-3-oxooctahydroindolizin-6-yl]imidazo[1,5-a]pyrazin-1-yl}-N-(4-cyclopropylpyridin-2-yl)-3-fluorobenzamide] | 1.3 nM | 318 nM
6 | Nc1ncc(F)n2c([C@@H]3CC[C@H]4CCC(=O)N4C3)nc(-c3ccc(C(=O)Nc4cc(C5CC5)ccn4)cc3)c12 [Example 168, 4-{8-amino-5-fluoro-3-[(6R,8aS)-3-oxooctahydroindolizin-6-yl]imidazo[1,5-a]pyrazin-1-yl}-N-(4-cyclopropylpyridin-2-yl)benzamide] | 1.5 nM | 285 nM
7 | CCOc1cc(C(=O)Nc2cc(C(F)(F)F)ccn2)c(F)cc1-c1nc([C@@H]2CC[C@H]3CCC(=O)N3C2)n2c(F)cnc(N)c12 [Example 169, 4-{8-amino-5-fluoro-3-[(6R,8aS)-3-oxooctahydroindolizin-6-yl]imidazo[1,5-a]pyrazin-1-yl}-5-ethoxy-2-fluoro-N-[4-(trifluoromethyl)pyridin-2-yl]benzamide] | 3.7 nM | 2950 nM
8 | Nc1nccn2c([C@@H]3CC[C@H]4CCC(=O)N4C3)nc(-c3ccc(C(=O)Nc4cc(C(F)(F)F)[nH]n4)cc3)c12 [Example 170, 4-(8-amino-3-((6R,8aS)-3-oxooctahydroindolizin-6-yl)imidazo[1,5-a]pyrazin-1-yl)-N-(5-(trifluoromethyl)-1H-pyrazol-3-yl)benzamide] | 36.9 nM | 6750 nM
9 | Cc1cc(NC(=O)c2ccc(-c3nc([C@@H]4CC[C@H]5CCC(=O)N5C4)n4ccnc(N)c34)cc2)nn1C [Example 175, 4-{8-amino-3-[(6R,8aS)-3-oxooctahydroindolizin-6-yl]imidazo[1,5-a]pyrazin-1-yl}-N-(1,5-dimethyl-1H-pyrazol-3-yl)benzamide] | 6.5 nM | 725 nM
10 | Cc1nsc(NC(=O)c2ccc(-c3nc([C@@H]4CC[C@H]5CCC(=O)N5C4)n4ccnc(N)c34)cc2)n1 [Example 176, 4-{8-amino-3-[(6R,8aS)-3-oxooctahydroindolizin-6-yl]imidazo[1,5-a]pyrazin-1-yl}-N-(3-methyl-1,2,4-thiadiazol-5-yl)benzamide] | 14.9 nM | 7810 nM
11 | Nc1nccn2c([C@@H]3CC[C@H]4CCC(=O)N4C3)nc(-c3ccc(C(=O)Nc4nc(C(F)(F)F)c[nH]4)cc3)c12 [Example 177, 4-{8-amino-3-[(6R,8aS)-3-oxooctahydroindolizin-6-yl]imidazo[1,5-a]pyrazin-1-yl}-N-[4-(trifluoromethyl)-1H-imidazol-2-yl]benzamide] | 144 nM | 3320 nM
12 | CCc1nsc(NC(=O)c2ccc(-c3nc([C@@H]4CC[C@H]5CCC(=O)N5C4)n4ccnc(N)c34)cc2)n1 [Example 178, 4-{8-amino-3-[(6R,8aS)-3-oxooctahydroindolizin-6-yl]imidazo[1,5-a]pyrazin-1-yl}-N-(3-ethyl-1,2,4-thiadiazol-5-yl)benzamide] | 27.6 nM | 5490 nM
13 | CC(C)c1nsc(NC(=O)c2ccc(-c3nc([C@@H]4CC[C@H]5CCC(=O)N5C4)n4ccnc(N)c34)cc2)n1 [Example 179, 4-{8-amino-3-[(6R,8aS)-3-oxooctahydroindolizin-6-yl]imidazo[1,5-a]pyrazin-1-yl}-N-[3-(1-methylethyl)-1,2,4-thiadiazol-5-yl]benzamide] | 68.9 nM | 2370 nM
14 | Nc1nccn2c([C@@H]3CC[C@H]4CCC(=O)N4C3)nc(-c3ccc(C(=O)Nc4cc(C(F)(F)F)n(C5CCCC5)n4)cc3)c12 [Example 180, 4-{8-amino-3-[(6R,8aS)-3-oxooctahydroindolizin-6-yl]imidazo[1,5-a]pyrazin-1-yl}-N-[1-cyclopentyl-5-(trifluoromethyl)-1H-pyrazol-3-yl]benzamide] | 285 nM | 230 nM
15 | Cc1nnc(NC(=O)c2ccc(-c3nc([C@@H]4CC[C@H]5CCC(=O)N5C4)n4ccnc(N)c34)cc2)s1 [Example 182, 4-{8-amino-3-[(6R,8aS)-3-oxooctahydroindolizin-6-yl]imidazo[1,5-a]pyrazin-1-yl}-N-(5-methyl-1,3,4-thiadiazol-2-yl)benzamide] | 272 nM | 3610 nM
16 | Cn1nc(NC(=O)c2ccc(-c3nc([C@@H]4CC[C@H]5CCC(=O)N5C4)n4c(Cl)cnc(N)c34)cc2)cc1C(F)(F)F [Example 183, 4-(8-amino-5-chloro-3-((6R,8aS)-3-oxooctahydroindolizin-6-yl)imidazo[1,5-a]pyrazin-1-yl)-N-(1-methyl-5-(trifluoromethyl)-1H-pyrazol-3-yl)benzamide] | 0.64 nM | 470 nM
17 | CCn1nc(NC(=O)c2ccc(-c3nc([C@@H]4CC[C@H]5CCC(=O)N5C4)n4ccnc(N)c34)cc2)cc1C(F)(F)F [Example 185, 4-{8-amino-3-[(6R,8aS)-3-oxooctahydroindolizin-6-yl]imidazo[1,5-a]pyrazin-1-yl}-N-[1-ethyl-5-(trifluoromethyl)-1H-pyrazol-3-yl]benzamide] | 237 nM | 5390 nM
18 | Cc1cc(C(=O)Nc2cc(C(F)(F)F)ccn2)ccc1-c1nc([C@@H]2CC[C@H]3CCC(=O)N3C2)n2ccnc(N)c12 [Example 187, 4-{8-amino-3-[(6R,8aS)-3-oxooctahydroindolizin-6-yl]imidazo[1,5-a]pyrazin-1-yl}-3-methyl-N-[4-(trifluoromethyl)pyridin-2-yl]benzamide] | 0.46 nM | 310 nM
19 | COc1cc(C(=O)Nc2cc(C(F)(F)F)n(C)n2)ccc1-c1nc([C@@H]2CC[C@H]3CCC(=O)N3C2)n2ccnc(N)c12 [Example 188, 4-{8-amino-3-[(6R,8aS)-3-oxooctahydroindolizin-6-yl]imidazo[1,5-a]pyrazin-1-yl}-3-methoxy-N-[1-methyl-5-(trifluoromethyl)-1H-pyrazol-3-yl]benzamide] | 2.7 nM | 3690 nM
20 | COc1cc(C(=O)Nc2cc(C(F)(F)F)n(C)n2)ccc1-c1nc([C@@H]2CC[C@H]3CCC(=O)N3C2)n2c(Cl)cnc(N)c12 [Example 189, 4-{8-amino-5-chloro-3-[(6R,8aS)-3-oxooctahydroindolizin-6-yl]imidazo[1,5-a]pyrazin-1-yl}-3-methoxy-N-[1-methyl-5-(trifluoromethyl)-1H-pyrazol-3-yl]benzamide] | 1.5 nM | 1550 nM
21 | Cn1nc(NC(=O)c2ccc(-c3nc([C@@H]4CC[C@H]5CCC(=O)N5C4)n4ccnc(N)c34)c(Cl)c2)cc1C(F)(F)F [Example 190, 4-{8-amino-3-[(6R,8aS)-3-oxooctahydroindolizin-6-yl]imidazo[1,5-a]pyrazin-1-yl}-3-chloro-N-[1-methyl-5-(trifluoromethyl)-1H-pyrazol-3-yl]benzamide] | 2.2 nM | 310 nM
22 | Cn1nc(NC(=O)c2ccc(-c3nc([C@@H]4CC[C@H]5CCC(=O)N5C4)n4c(Cl)cnc(N)c34)c(Cl)c2)cc1C(F)(F)F [Example 191, 4-{8-amino-5-chloro-3-[(6R,8aS)-3-oxooctahydroindolizin-6-yl]imidazo[1,5-a]pyrazin-1-yl}-3-chloro-N-[1-methyl-5-(trifluoromethyl)-1H-pyrazol-3-yl]benzamide] | 1.9 nM | 994 nM
23 | Cn1nc(NC(=O)c2cc(Cl)c(-c3nc([C@@H]4CC[C@H]5CCC(=O)N5C4)n4c(Cl)cnc(N)c34)cc2F)cc1C(F)(F)F [Example 192, 4-{8-amino-5-chloro-3-[(6R,8aS)-3-oxooctahydroindolizin-6-yl]imidazo[1,5-a]pyrazin-1-yl}-5-chloro-2-fluoro-N-[1-methyl-5-(trifluoromethyl)-1H-pyrazol-3-yl]benzamide] | 24.6 nM | 408 nM

Reference: patent US20140206681A1, “BTK INHIBITORS” (priority 2013, published 2014)
